Tested on: differentiated Caco-2-cells
Experiment: Intestinal fatty acid resorption, QBT Fatty Acid Uptake Kit (BODIPY-dodecanoic acid)
Format: cell-based
Settings: Homo sapiens, fatty acid resorption AUC as percent of the vehicle treated control, 30 min preincubation, fluorescence measured over 1 h; for activity at 1 µM: 1 μM substance; for activity at 100 µM: 100 μM substance
From the text: The ability of modulating the fatty acid resorption/absorption (as described in the scope of the present invention) of a substance or substance mixture can be determined or, respectively, evaluated e.g. according to the method described herein, by using Caco-2-cells (s. also the example section of the present text). Preferably, in the scope of the present text it is to be assumed that substances reducing or, respectively, inhibiting the fatty acid resorption (preferably when performing the method described herein, s. example section) are also suitable for the uses or, respectively, applications according to the invention and described herein. Preferably, the human colon cell line Caco-2 (ATCC-number HTB-37) is used, after differentiation to a phenotype related to entereocytes, as cell model for the resorption of free fatty acids into the small intestine. (Caco-2-cells are preferably cultivated at 37° C. and 5% CO2 content with Dulbecco's Modified Eagles Medium (DMEM) with 10% FBS, 2% L-Glutamine and 1% Penicillin/Streptomycin. The differentiation to enterocytes is preferably performed by an 18-days cultivation of the cells after reaching confluence.)
The resorption of free fatty acids in differentiated Caco-2-cells was analysed with the QBT Fatty Acid Uptake Kit (Molecular Devices Corporation, Germany), which uses the fluorescent fatty acid analogue BODIPY-dodecanoic acid. For preparing the assay, the differentiated Caco-2-cells are subjected to a one hour incubation in serum-free medium at standard cell culture conditions of a hunger phase. Subsequently, the test substances were added at 1 or 100 μM, diluted in Hank's balanced salt solution (HBSS of Lonza, Biozym-order number 882010)-buffer, treated with 20 mM HEPES (diluted from a 1M solution of Gibco, Thermo Fisher-order number 15630056) (in the following described as HBSS/HEPES-buffer). Controls were only treated with HBSS/HEPES-buffer. After a 30 minute preincubation at 37° C., the fluorescent fatty acid analogue was added, which was diluted in HBSS/HEPES-buffer (supplemented with 0.2% fatty acid free BSA [Sigma Aldrich, Germany]). The fluorescence signals were measured after excitation with 485 nm at an emission wavelength of 515 nm during a time of 1 h in a microtiter plate-reader (Synergy; BioTek, Germany). Starting from a time-signal-intensity curve resulting from the measurement, the area under the curve (AUC) was calculated to determine the cellular fatty acid resorption after treatment with the substances. The results obtained thereby are indicated as percent related to the control treatment (s. table 1).
Table 1: Results of the measurement of the inhibition of the fatty acid resorption in Caco-2-cells. The calculated area under the curve (AUC) is shown for tests at each 1 and 100 μM substance used (as percent of the vehicle treated control).
With the test for measurement shown in example 2, in total 25 compounds of formula (I) (as described herein) were measured for their inhibitory activity regarding the fatty acid resorption in Caco-2-cells for each two concentrations (1 and 100 μM) in triple determination. The obtained activity data was subsequently used for a structure-effect-analysis by using the software-package StarDrop (Optibrium Ltd) and Vortex (Dotmatics Ltd.). Thereby, an R-group analysis with the basic structure according to formula (II) was performed.

Compound | activity at 1 µM | activity at 100 µM
COc1cc(CC(=O)OCCc2ccccc2)ccc1O [Compound 1, 2-Phenylethyl-2-(4-hydroxy-3-methoxy-phenyl)acetate] | 103% | 103%
COc1cc(CC(=O)OC/C=C/c2ccccc2)ccc1O [Compound 2, [(E)-Cinnamyl]-2-(4-hydroxy-3-methoxy-phenyl)acetate] | 97.6% | 94.6%
CCCC(CC)OC(=O)Cc1ccc(O)c(OC)c1 (stereo not drawn) [Compound 3, 1-Ethylbutyl-2-(4-hydroxy-3-methoxy-phenyl)acetate] | 87.1% | 62.5%
COc1cc(CC(=O)OCC=C(C)C)ccc1O [Compound 4, 3-Methylbut-2-enyl-2-(4-hydroxy-3-methoxy-phenyl)acetate] | 101% | 80.9%
CCC/C=C/COC(=O)Cc1ccc(O)c(OC)c1 [Compound 5, [(E)-Hex-2-enyl]-2-(4-hydroxy-3-methoxy-phenyl)acetate] | 101% | 96.5%
CC/C=C\CCOC(=O)Cc1ccc(O)c(OC)c1 [Compound 6, [(Z)-Hex-3-enyl]-2-(4-hydroxy-3-methoxy-phenyl)acetate] | 99.9% | 90.4%
COc1cc(CC(=O)OC(C)C)ccc1O [Compound 7, Isopropyl-2-(4-hydroxy-3-methoxy-phenyl)acetate] | 91.6% | 61.6%
CCC(C)OC(=O)Cc1ccc(O)c(OC)c1 (stereo not drawn) [Compound 8, sec-Butyl-2-(4-hydroxy-3-methoxy-phenyl)acetate] | 92% | 61.9%
COc1cc(CC(=O)OCC(C)C)ccc1O [Compound 9, Isobutyl-2-(4-hydroxy-3-methoxy-phenyl)acetate] | 100% | 68%
COc1cc(CC(=O)OCCC(C)C)ccc1O [Compound 10, Isopentyl-2-(4-hydroxy-3-methoxy-phenyl)acetate] | 99.8% | 82.7%
CCC(C)COC(=O)Cc1ccc(O)c(OC)c1 (stereo not drawn) [Compound 11, 2-Methylbutyl-2-(4-hydroxy-3-methoxy-phenyl)acetate] | 99% | 79%
CCCCC(C)OC(=O)Cc1ccc(O)c(OC)c1 (stereo not drawn) [Compound 12, 1-Methylpentyl-2-(4-hydroxy-3-methoxy-phenyl)acetate] | 89.5% | 53.3%
CCCCCCCOC(=O)Cc1ccc(O)c(OC)c1 [Compound 13, Heptyl-2-(4-hydroxy-3-methoxy-phenyl)acetate] | 103% | 92.7%
CCCCCC(C)OC(=O)Cc1ccc(O)c(OC)c1 (stereo not drawn) [Compound 14, 1-Methyl hexyl-2-(4-hydroxy-3-methoxy-phenyl)acetate] | 93.4% | 67.5%
COc1cc(CC(=O)O[C@@H]2C[C@H](C)CC[C@H]2C(C)C)ccc1O [Compound 15, (2-Isopropyl-5-methyl-cyclohexyl)-2-(4-hydroxy-3-methoxy-phenyl)acetate] | 95.5% | 58.1%
CCOC(=O)Cc1ccc(O)c(OC)c1 [Compound 16, Ethyl-2-(4-hydroxy-3-methoxy-phenyl)acetate] | 105% | 93.8%
CCCOC(=O)Cc1ccc(O)c(OC)c1 [Compound 17, Propyl-2-(4-hydroxy-3-methoxy-phenyl)acetate] | 101% | 89.7%
CCCCOC(=O)Cc1ccc(O)c(OC)c1 [Compound 18, Butyl-2-(4-hydroxy-3-methoxy-phenyl)acetate] | 102% | 90.7%
CCCCCOC(=O)Cc1ccc(O)c(OC)c1 [Compound 19, Pentyl-2-(4-hydroxy-3-methoxy-phenyl)acetate] | 101% | 92.9%
CCCCCCOC(=O)Cc1ccc(O)c(OC)c1 [Compound 20, Hexyl-2-(4-hydroxy-3-methoxy-phenyl)acetate] | 102% | 91.4%
CCC(CC)COC(=O)Cc1ccc(O)c(OC)c1 [Compound 23, 2-Ethylbutyl-2-(4-hydroxy-3-methoxy-phenyl)acetate] | 99.7% | 62.1%
